From ChEMBL document CHEMBL4706739, “Novel Heterobicyclic Carboxamides for Treating Eye Diseases” (ACS Med Chem Lett, 2021)

Biological target: Rho-associated protein kinase 2 (Homo sapiens, UniProt O75116)
Assay: Inhibition of ROCK2 (unknown origin) using KRRRLSSLRA as substrate incubated for 75 mins in presence of ATP and DTT by Kinase-Glo luminescent assay

Chain of Rho-associated protein kinase 2 (O75116 whole entry): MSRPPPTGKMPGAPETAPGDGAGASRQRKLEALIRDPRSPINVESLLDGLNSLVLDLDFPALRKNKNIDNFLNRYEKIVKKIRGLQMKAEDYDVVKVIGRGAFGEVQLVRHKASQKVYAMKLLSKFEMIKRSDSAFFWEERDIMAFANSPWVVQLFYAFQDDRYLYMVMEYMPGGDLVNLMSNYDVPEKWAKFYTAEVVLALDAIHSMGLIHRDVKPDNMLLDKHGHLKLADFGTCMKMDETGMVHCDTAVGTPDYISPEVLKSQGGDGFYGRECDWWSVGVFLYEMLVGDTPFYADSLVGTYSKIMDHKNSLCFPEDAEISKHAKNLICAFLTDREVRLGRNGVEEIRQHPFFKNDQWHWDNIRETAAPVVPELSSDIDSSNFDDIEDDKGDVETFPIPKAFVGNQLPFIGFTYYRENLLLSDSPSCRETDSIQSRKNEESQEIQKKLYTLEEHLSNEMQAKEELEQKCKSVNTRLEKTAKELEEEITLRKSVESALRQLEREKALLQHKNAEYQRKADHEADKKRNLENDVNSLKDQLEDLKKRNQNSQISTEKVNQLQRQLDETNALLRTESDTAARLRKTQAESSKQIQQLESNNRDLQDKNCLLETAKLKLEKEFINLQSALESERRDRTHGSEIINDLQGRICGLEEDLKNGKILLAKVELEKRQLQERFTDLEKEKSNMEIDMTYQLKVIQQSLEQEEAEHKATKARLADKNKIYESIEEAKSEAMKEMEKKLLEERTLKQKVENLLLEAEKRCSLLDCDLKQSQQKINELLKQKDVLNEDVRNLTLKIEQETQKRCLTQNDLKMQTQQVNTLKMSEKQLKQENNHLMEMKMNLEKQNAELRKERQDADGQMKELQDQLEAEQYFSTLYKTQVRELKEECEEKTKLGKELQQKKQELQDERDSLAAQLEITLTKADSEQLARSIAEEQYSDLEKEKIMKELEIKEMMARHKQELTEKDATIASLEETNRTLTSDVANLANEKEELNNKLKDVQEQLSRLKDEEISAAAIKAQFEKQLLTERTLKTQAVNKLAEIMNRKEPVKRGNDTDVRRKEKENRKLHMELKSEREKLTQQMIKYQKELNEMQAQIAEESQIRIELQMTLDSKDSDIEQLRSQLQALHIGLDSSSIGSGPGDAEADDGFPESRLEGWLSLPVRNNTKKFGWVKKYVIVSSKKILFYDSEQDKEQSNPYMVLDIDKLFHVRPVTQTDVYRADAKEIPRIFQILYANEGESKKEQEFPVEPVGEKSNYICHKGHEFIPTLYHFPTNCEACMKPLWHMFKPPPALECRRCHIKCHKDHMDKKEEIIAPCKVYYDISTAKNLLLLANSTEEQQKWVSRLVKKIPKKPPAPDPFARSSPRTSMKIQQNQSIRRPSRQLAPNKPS

Row | IC50 | Compound
1 | 6 nM | O=C(Nc1nc2ccncc2s1)[C@@H]1C[C@H]1c1ccc(S(=O)(=O)Nc2ccccn2)cc1
2 | 6 nM | O=C(Nc1ccc2cnccc2n1)[C@@H]1C[C@H]1c1ccc(S(=O)(=O)Nc2ccccn2)cc1
